Experimental data from patent US11000033B2, “Ketone or oxime compound, and herbicide” (NISSAN CHEMICAL CORPORATION, priority 2014, dated 2021).

Tests used:
Format in all cases: in vivo
Chenopodium album [1] = test: Test Example 4: herbicidal effect by soil treatment (symbol O); conditions: for O: Chenopodium album, herbicidal effect grade: 320 g/ha; for O (Chenopodium album) herbicidal effect grade: application herbicide amount 320 g/ha
Summary of the method: (§1)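 Seeds were sown in sterilized diluvial soil, covered with about 1.5 cm of soil, and the soil surface was sprayed with a water-diluted emulsion of the compound at a predetermined rate. Plants grew in a greenhouse at 25° C. to 30° C.; effects were scored visually 3 weeks after application.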

Chenopodium album [2] = test: Test Example 5: herbicidal effect by foliage application, plastic box (symbol O); conditions: 320 g/ha, 3 weeks after application
Summary of the method: (§2)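 Leaf-applied emulsion, water-diluted to a preset herbicide dose, on two-week-old seedlings raised in a 25° C. to 30° C. greenhouse; injury rated at 3 weeks using earlier criteria.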

Veronica persica = test: Test Example 4: herbicidal effect by soil treatment (symbol R); conditions: for R: Veronica persica, herbicidal effect grade: 320 g/ha; for R (Veronica persica) herbicidal effect grade: application herbicide amount 320 g/ha
Summary of the method: as §1

Stellaria media = test: Test Example 5: herbicidal effect by foliage application, plastic box (symbol P); conditions: 320 g/ha, 3 weeks after application
Summary of the method: as §2

rice plant = test: Test Example 5: effect on crop by foliage application, plastic box (symbol b); conditions: 320 g/ha, 3 weeks after application
Summary of the method: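 Greenhouse culture at 25° C. to 30° C. followed spot-like sowing into sterilized diluvial soil, with seed covered by roughly 1.5 cm of soil.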

SMILES | O: Chenopodium album, herbicidal effect grade (Chenopodium album [1]) | O: Chenopodium album, herbicidal effect (criteria 0-5) (Chenopodium album [2]) | R: Veronica persica, herbicidal effect grade (Veronica persica) | P: Stellaria media, herbicidal effect (criteria 0-5) (Stellaria media) | b: directly sowed rice plant, effect on crop (criteria 0-5) (rice plant) | O (Chenopodium album) herbicidal effect grade (Chenopodium album [1]) | O: Chenopodium album, herbicidal effect grade (Chenopodium album [2]) | P: Stellaria media, herbicidal effect grade (Stellaria media) | b: directly sowed rice plant, effect on crop grade (rice plant) | R (Veronica persica) herbicidal effect grade (Veronica persica)
CON=C(CC1CC(O)=C(c2c(C)cc(C)cc2C)C1=O)C1CCCCC1 (stereo not shown) [1-085] | 0 (Herbicidal ratio of 5% or lower (almost no effect)) | 0 (Herbicidal ratio of 5% or lower (almost no effect)) | 0 (Herbicidal ratio of 5% or lower (almost no effect)) | 0 (Herbicidal ratio of 5% or lower (almost no effect)) | 4 (Herbicidal ratio of 70% or higher and lower than 90%) |  |  |  |  | 
CON=C(C)CC1CC(OC(=O)C2=C(Br)CCC2)=C(c2c(C)cc(C)cc2C)C1=O (stereo not shown) [1-089] | 0 (Herbicidal ratio of 5% or lower (almost no effect)) | 1 (Herbicidal ratio of 5% or higher and lower than 20%) | 0 (Herbicidal ratio of 5% or lower (almost no effect)) | 0 (Herbicidal ratio of 5% or lower (almost no effect)) | 5 (Herbicidal ratio of 90% or more (almost completely withered)) |  |  |  |  | 
CON=C(C)CC1CC(OC(=O)C(C)Cl)=C(c2c(C)cc(C)cc2C)C1=O (stereo not shown) [1-042] |  |  |  |  |  | 0 (Herbicidal ratio of 5% or lower (almost no effect)) | 0 (Herbicidal ratio of 5% or lower (almost no effect)) | 0 (Herbicidal ratio of 5% or lower (almost no effect)) | 5 (Herbicidal ratio of 90% or more (almost completely withered)) | 
CC(CC1CC(O)=C(c2c(C)cc(C)cc2C)C1=O)=NOCC[Si](C)(C)C (stereo not shown) [1-055] |  |  |  |  |  | 0 (Herbicidal ratio of 5% or lower (almost no effect)) | 1 (Herbicidal ratio of 5% or higher and lower than 20%) | 0 (Herbicidal ratio of 5% or lower (almost no effect)) | 5 (Herbicidal ratio of 90% or more (almost completely withered)) | 0 (Herbicidal ratio of 5% or lower (almost no effect))
C=CC(CC1CC(O)=C(c2c(C)cc(C)cc2C)C1=O)=NOC (stereo not shown) [1-086] | 0 (Herbicidal ratio of 5% or lower (almost no effect)) | 0 (Herbicidal ratio of 5% or lower (almost no effect)) | 0 (Herbicidal ratio of 5% or lower (almost no effect)) | 0 (Herbicidal ratio of 5% or lower (almost no effect)) | 4 (Herbicidal ratio of 70% or higher and lower than 90%) |  |  |  |  | 
CON=C(C)CC1CC(OC(=O)COCc2ccccc2)=C(c2c(C)cc(C)cc2C)C1=O (stereo not shown) [1-094] | 0 (Herbicidal ratio of 5% or lower (almost no effect)) | 0 (Herbicidal ratio of 5% or lower (almost no effect)) | 0 (Herbicidal ratio of 5% or lower (almost no effect)) | 3 (Herbicidal ratio of 40% or higher and lower than 70%) | 5 (Herbicidal ratio of 90% or more (almost completely withered)) |  |  |  |  | 
CON=C(C)CC1CC(OC(=O)C(C)Oc2ccccc2)=C(c2c(C)cc(C)cc2C)C1=O (stereo not shown) [1-060] |  |  |  |  |  | 0 (Herbicidal ratio of 5% or lower (almost no effect)) | 3 (Herbicidal ratio of 40% or higher and lower than 70%) | 3 (Herbicidal ratio of 40% or higher and lower than 70%) | 5 (Herbicidal ratio of 90% or more (almost completely withered)) | 0 (Herbicidal ratio of 5% or lower (almost no effect))
